What all share (format): ADME
Series [1] concerns the target T1, Mitochondrial amidoxime-reducing component 1 (Homo sapiens, UniProt Q5VT66).
T1 sequence (Q5VT66 whole entry): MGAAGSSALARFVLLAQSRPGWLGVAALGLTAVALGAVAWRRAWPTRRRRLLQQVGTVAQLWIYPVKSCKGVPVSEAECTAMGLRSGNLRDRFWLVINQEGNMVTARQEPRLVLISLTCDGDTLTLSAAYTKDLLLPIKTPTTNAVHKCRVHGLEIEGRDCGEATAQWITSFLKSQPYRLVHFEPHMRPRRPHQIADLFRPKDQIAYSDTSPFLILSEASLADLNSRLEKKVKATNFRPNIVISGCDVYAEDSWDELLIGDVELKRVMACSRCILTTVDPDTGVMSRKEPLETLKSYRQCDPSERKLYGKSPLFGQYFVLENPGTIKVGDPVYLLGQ
Put plainly: Substrate activity at human mARC1 expressed in Escherichia coli assessed as turnover rates at 3 mM pre-incubated for 3 mins followed by NADH addition and measured after 15 mins by LC-MS analysis based assay. The note with it: 0.25 h, 3000 µM.

In series [2] the target is T2, Mitochondrial amidoxime reducing component 2 (Homo sapiens, UniProt Q969Z3).
T2 sequence (Q969Z3 whole entry): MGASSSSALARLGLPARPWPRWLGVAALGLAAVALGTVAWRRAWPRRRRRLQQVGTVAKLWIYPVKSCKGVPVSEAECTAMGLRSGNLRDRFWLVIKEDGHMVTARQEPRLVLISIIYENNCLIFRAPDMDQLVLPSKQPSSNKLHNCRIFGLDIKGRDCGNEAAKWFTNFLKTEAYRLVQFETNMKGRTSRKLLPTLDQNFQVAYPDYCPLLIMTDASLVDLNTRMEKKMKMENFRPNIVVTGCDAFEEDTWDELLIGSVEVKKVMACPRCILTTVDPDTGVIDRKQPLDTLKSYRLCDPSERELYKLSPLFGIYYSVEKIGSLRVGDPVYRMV
Put plainly: Substrate activity at human mARC2 expressed in Escherichia coli assessed as turnover rates at 3 mM pre-incubated for 3 mins followed by NADH addition and measured after 15 mins by UV-Visible spectroscopy based NADH assay. The settings on record: 0.25 h, 3000 µM.

Series [3] has as its target T1, Mitochondrial amidoxime-reducing component 1. Put plainly: Substrate activity at human mARC1 expressed in Escherichia coli assessed as turnover rates at 3 mM pre-incubated for 3 mins followed by NADH addition and measured after 15 mins by UV-Visible spectroscopy based NADH assay. The note with it: 0.25 h, 3000 µM.
Series [4] concerns the target T2, Mitochondrial amidoxime reducing component 2. Put plainly: Substrate activity at human mARC2 expressed in Escherichia coli assessed as turnover rates at 3 mM pre-incubated for 3 mins followed by NADH addition and measured after 15 mins by LC-MS analysis based assay. The settings on record: 0.25 h, 3000 µM.
For series [5] the target is unchanged. Put plainly: Substrate activity at human mARC2 expressed in Escherichia coli assessed as turnover rates at 1 mM pre-incubated for 3 mins followed by NADH addition and measured after 15 mins by UV-Visible spectroscopy based NADH assay. The settings on record: 0.25 h, 1000 µM.
The target is the same in series [6]. Put plainly: Substrate activity at human mARC2 expressed in Escherichia coli assessed as turnover rates at 1 mM pre-incubated for 3 mins followed by NADH addition and measured after 15 mins by LC-MS analysis based assay. The settings on record: 0.25 h, 1000 µM.
For series [7], the target named is T1, Mitochondrial amidoxime-reducing component 1. Put plainly: Substrate activity at human mARC1 expressed in Escherichia coli assessed as turnover rates at 1 mM pre-incubated for 3 mins followed by NADH addition and measured after 15 mins by UV-Visible spectroscopy based NADH assay. The settings on record: 0.25 h, 1000 µM.
For series [8] the target is unchanged. Put plainly: Substrate activity at human mARC1 expressed in Escherichia coli assessed as turnover rates at 1 mM pre-incubated for 3 mins followed by NADH addition and measured after 15 mins by LC-MS analysis based assay. The settings on record: 0.25 h, 1000 µM.
For series [9], the target named is T2, Mitochondrial amidoxime reducing component 2. Put plainly: Substrate activity at human mARC2 expressed in Escherichia coli assessed as turnover rates at 200 uM pre-incubated for 3 mins followed by NADH addition and measured after 15 mins by UV-Visible spectroscopy based NADH assay. The settings on record: 0.25 h.
The target is the same in series [10]. Put plainly: Substrate activity at human mARC2 expressed in Escherichia coli assessed as turnover rates at 200 uM pre-incubated for 3 mins followed by NADH addition and measured after 15 mins by LC-MS analysis based assay. The note with it: 0.25 h.
The target in series [11] is T1, Mitochondrial amidoxime-reducing component 1. Put plainly: Substrate activity at human mARC1 expressed in Escherichia coli assessed as turnover rates at 200 uM pre-incubated for 3 mins followed by NADH addition and measured after 15 mins by LC-MS analysis based assay. The settings on record: 0.25 h.
The target is the same in series [12]. Put plainly: Substrate activity at human mARC1 expressed in Escherichia coli assessed as turnover rates at 200 uM pre-incubated for 3 mins followed by NADH addition and measured after 15 mins by UV-Visible spectroscopy based NADH assay. The settings on record: 0.25 h.
The target of series [13] is T2, Mitochondrial amidoxime reducing component 2. Put plainly: Substrate activity at human mARC2 expressed in Escherichia coli assessed as turnover rates at 500 uM pre-incubated for 3 mins followed by NADH addition and measured after 15 mins by UV-Visible spectroscopy based NADH assay. The settings on record: 0.25 h.
The target of series [14] is T1, Mitochondrial amidoxime-reducing component 1. Put plainly: Substrate activity at human mARC1 expressed in Escherichia coli assessed as turnover rates at 500 uM pre-incubated for 3 mins followed by NADH addition and measured after 15 mins by UV-Visible spectroscopy based NADH assay. The settings on record: 0.25 h.
For series [15] the target is unchanged. Put plainly: Substrate activity at human mARC1 expressed in Escherichia coli assessed as turnover rates at 500 uM pre-incubated for 3 mins followed by NADH addition and measured after 15 mins by LC-MS analysis based assay. The note with it: 0.25 h.
For series [16], the target named is T2, Mitochondrial amidoxime reducing component 2. Put plainly: Substrate activity at human mARC2 expressed in Escherichia coli assessed as turnover rates at 500 uM pre-incubated for 3 mins followed by NADH addition and measured after 15 mins by LC-MS analysis based assay. The settings on record: 0.25 h.

As to `CN(CCCC(=O)c1cccnc1)N=O`, the Activity result in series [1] (BLD = below limit of detection), in series [2] (BLD = below limit of detection), in [3] (BLD = below limit of detection) and in [4] (BLD = below limit of detection) was “Bld” throughout.
For `OC[C@H]1O[C@@H](n2cnc3c(NO)ncnc32)[C@H](O)[C@@H]1O`, the Activity came out at 271.6 nmol/mg/min in series [5], 291 nmol/mg/min in series [6], 845.7 nmol/mg/min in [7] and 954.5 nmol/mg/min in [8].
Consider `NC(=O)c1ccc[n+]([O-])c1`, for which the Activity in series [1] is 239.3 nmol/mg/min; in series [2] (BLD = below limit of detection), “Bld”; in [3], 209.9 nmol/mg/min; in series [4] (BLD = below limit of detection), “Bld”.
Consider `C=C1C(=O)O[C@@H]2CC[N+]3([O-])CC=C(COC(=O)[C@](C)(O)[C@H](C)[C@H]1C)[C@H]23` (stereo not given in full), for which the Activity result in series [5] (BLD = below limit of detection) is “Bld”; in series [6] (BLD = below limit of detection), “Bld”; in [7], 12.7 nmol/mg/min; in [8] it was 17.6 nmol/mg/min.
As to `C[N+](C)([O-])CCC=C1c2ccccc2CCc2ccccc21` [AMITRIPTYLINOXIDE], the Activity was 3.1 nmol/mg/min in series [1], “Bld” in [2] (BLD = below limit of detection), 9.5 nmol/mg/min in [3] and “Bld” in series [4] (BLD = below limit of detection).
Regarding `NC(=NO)c1ccccc1` [BENZAMIDOXIME], the Activity in series [1] turned out to be 549.6 nmol/mg/min; in series [2], 394.3 nmol/mg/min; in series [3], 499.8 nmol/mg/min; in [4], 373.9 nmol/mg/min.
Take `NS(=O)(=O)NCCNc1nonc1C(=NO)Nc1ccc(F)c(Br)c1` [EPACADOSTAT]: the Activity in series [9] amounted to 24.3 nmol/mg/min; in [10], 17.9 nmol/mg/min; in [11], 4.1 nmol/mg/min; in series [12], 10.4 nmol/mg/min.
`O=CN(O)CCCP(=O)([O-])O.[Na+]` [FOSMIDOMYCIN SODIUM]: the Activity in series [2] was found to be 27.8 nmol/mg/min; in series [3] it was 7.2 nmol/mg/min.
As to `N=C(NO)N/N=C/c1c(Cl)cccc1Cl` [GUANOXABENZ], the Activity in series [13] stood at 947.1 nmol/mg/min; in series [14], 951.2 nmol/mg/min; in series [15], 988 nmol/mg/min; in series [16], 967.5 nmol/mg/min.
Turning to `NC(=O)NO` [HYDROXYUREA], the Activity in [2] came to 34.4 nmol/mg/min; in series [3] it was 471.5 nmol/mg/min.
Turning to `Cc1oncc1C(=O)Nc1ccc(C(F)(F)F)cc1` [LEFLUNOMIDE], the Activity result in series [13] (BLD = below limit of detection), in series [14] (BLD = below limit of detection), in series [15] (BLD = below limit of detection) and in [16] (BLD = below limit of detection) was “Bld” in each case.
With `O=c1nc(NO)ccn1[C@@H]1O[C@H](CO)[C@@H](O)[C@H]1O` [N-HYDROXYCYTIDINE], the Activity was 354.8 nmol/mg/min in series [1], 142.1 nmol/mg/min in [2], 354.7 nmol/mg/min in series [3] and 184.2 nmol/mg/min in series [4].
Take `Cc1cn([C@H]2C[C@H](N=[N+]=[N-])[C@@H](CO)O2)c(=O)[nH]c1=O` [ZIDOVUDINE]: the Activity entry in [1] (BLD = below limit of detection), in series [2] (BLD = below limit of detection), in series [3] (BLD = below limit of detection) and in [4] (BLD = below limit of detection) was “Bld” each time.
On to `CC(c1cc2ccccc2s1)N(O)C(N)=O` (stereo not given) [ZILEUTON], for which the Activity in series [5] turned out to be 8.3 nmol/mg/min; in series [6], 0.9 nmol/mg/min; in series [7], 6.1 nmol/mg/min; in series [8] it was 2.3 nmol/mg/min.
Regarding `O=C1Cc2cc(CCN3CCN(c4nsc5ccccc45)CC3)c(Cl)cc2N1` [ZIPRASIDONE], the Activity result in [9] (BLD = below limit of detection), in series [10] (BLD = below limit of detection), in [11] (BLD = below limit of detection) and in [12] (BLD = below limit of detection) was “Bld” in each case.
On to `NS(=O)(=O)Cc1noc2ccccc12` [ZONISAMIDE], for which the Activity result in series [5] (BLD = below limit of detection), in series [6] (BLD = below limit of detection), in series [7] (BLD = below limit of detection) and in series [8] (BLD = below limit of detection) was “Bld” throughout.

The values above are taken from ChEMBL document CHEMBL4613226, “Drug Metabolism by the Mitochondrial Amidoxime Reducing Component (mARC): Rapid Assay and Identification of New Substrates” (J Med Chem, 2020).
